US9382295B2, “Cyclic depsipeptide compounds and their uses” (Cypralis Limited, priority 2012, dated 2016)
Values after ≈ are worked out from the molar mass of the structure shown. Where two headings read alike, the source gives them in different places. Numbered stars: 1 amine (or outer) side, 2 acyl side, 3 side chain; on linkers, the order of the positions; unused ones are H or OH. Square brackets hold non-standard residues; d marks the D form. Peptide text beside a SMILES is read from it. X19 = C[C@H](CCN1CCCC(C(F)(F)F)C1)[C@@H](O)[C@H](C(=O)[*:2])N(C)[*:1]; X30 = C[C@H](CCN(C)Cc1nnn[nH]1)[C@@H](O)[C@H](C(=O)[*:2])N(C)[*:1]; X17 = C[C@H](CCN(C)CCc1ccccn1)[C@@H](O)[C@H](C(=O)[*:2])N(C)[*:1]; X12 = C[C@H](CCN(C)Cc1ccncc1)[C@@H](O)[C@H](C(=O)[*:2])N(C)[*:1]; X24 = C[C@H](CCN(C)CC1COCCO1)[C@@H](O)[C@H](C(=O)[*:2])N(C)[*:1]; X7 = C[C@H](CCN(C)Cc1ccnn1C)[C@@H](O)[C@H](C(=O)[*:2])N(C)[*:1]; X34 = C[C@H](CCN1CCN(C)CC1)[C@@H](O)[C@H](C(=O)[*:2])N(C)[*:1]; d(aThr) = C[C@@H](O)[C@@H](N)C(=O)O; NMeL = CN[C@@H](CC(C)C)C(=O)O; dNMeL = CN[C@H](CC(C)C)C(=O)O; dNMeV = CN[C@@H](C(=O)O)C(C)C; Hiv = CC(C)[C@H](O)C(=O)O; Sar = CNCC(=O)O

Experiments:
[1] = Water solubility assay (pH 7.8 buffer); assay type: physicochemical
Protocol: ***Water Solubility Assay (Measured in pH 7.8 Buffer)
The onset of precipitation, if it occurred, was detected by an increase in absorbance at 650 nm.
Assay Buffer: 35 mM HEPES pH 7.8
Stock solutions of Control and Test Compounds: 10 mM in 100% DMSO
10 mM stock solutions of control and test compounds were prepared in 100% DMSO. A series of dilutions were prepared from the stock in DMSO so that the final concentrations in the assay were 0, 3.33, 10, 25, 50, 75 and 100 μM and DMSO was limited to 1%.
Assay buffer (247.5 μl) was placed into flat bottomed transparent 96-well plate. For blank samples DMSO (2.5 μl) was added. For test and control samples 2.5 μl of the appropriate DMSO dilution stocks were added to the appropriate well. All test and control compounds were performed in triplicate.
The plates were sealed with adhesive plate seal and shaken at 250 rpm at 25° C. for 18 h on a plate shaker.
After incubation the plate seals were taken off and any bubbles observed in wells removed. The plates were read on a SpectraMaxM5 with a 5 s pre-shake at 650 nm.
Data files were transferred to the appropriate worksheet and the solubility range of the compounds was calculated from the data.
The values shown in the tables indicate the concentration in μM (micromolar) at which the compound remains in solution.

[2] = biological target: T1, cyclophilin A (Cyp A) (Homo sapiens, UniProt P62937); experiment: Protease-free PPIase assay, cyclophilin A; assay type: biochemical
T1 construct: purchased Sigma C3805
Protocol: (§1) The protease-free PPIase assay measures the rate of cis to trans conversion of a peptide substrate catalyzed by the enzymes cyclophilin A and cyclophilin D. Addition of a cyclophilin inhibitor (e.g., a test compound) slows the catalyzed rate and a Ki value is obtained. […] 35 mM HEPES pH 7.8, filtered through a 0.2 μm filter. 50 μM DTT was added prior to use each day and then the buffer was stored on ice. Human recombinant cyclophilin A (Cyp A) (Sigma C3805) enzyme was diluted to 1 μM with enzyme dilution buffer (20 mM HEPES pH 7.8, 40% glycerol, 50 μM DTT and 1 μM BSA) and stored at -20° C. Succinimide-[…]) (from Bachem AG, L-1400), 20 mg/ml prepared in 0.5 M LiCl in trifluoroethanol. All readings were taken with an Agilent 8453 Spectrophotometer which consists of a cuvette holder, stirrer and chiller to maintain a stirred cuvette temperature of 10.0±0.1° C. The temperature is monitored by the use of temperature probe. […] The inhibitor was diluted in 100% DMSO, and then added to the assay to a maximum final concentration of 0.5% DMSO in the assay. A blank spectrum was obtained, then 3 μL of enzyme was added (2 nM final concentration) and then 3 μL substrate (60 μM final concentration) added. The absorbance was measured at 330 nm for 300 s or 500 s for blank runs (NOTE: the substrate must be added in one quick injection and the measurements started immediately to minimize mixing errors). A first order rate equation was fitted to the absorbance data, for each concentration of inhibitor, to obtain the rate constant (the first 10 to 15 seconds were excluded as mixing causes errors in this portion of curve). The catalytic rate was calculated from the enzymatic rate constant minus the background rate constant. An exponential curve was generated using the catalytic rate constants versus the inhibitor concentration to obtain the Ki value for the inhibitor. The Ki value is indicative of the binding affinity between the test compound and cyclophilin A or cyclophilin D.

[3] = biological target: cyclophilin D (Cyp D) (Homo sapiens, UniProt P30405); experiment: Protease-free PPIase assay, cyclophilin D; assay type: biochemical
Protocol: as §1, with “ice.” for “ice. Human recombinant cyclophilin A (Cyp A) (Sigma C3805) enzyme was diluted to 1 μM with enzyme dilution buffer (20 mM HEPES pH 7.8, 40% glycerol, 50 μM DTT and 1 μM BSA) and stored at -20° C.”

[4] = 35 mM HEPES buffer, 35 mM HEPES pH 7.8, 1% DMSO, 25° C., 18 h, concentration at which compound remains in solution, read-out: Solubility
[5] = protease-free PPIase assay, class symbols, read-out: CypA Ki
[6] = protease-free PPIase assay, class symbols, read-out: CypD Ki

Chain of cyclophilin D (Cyp D) (P30405 30-207): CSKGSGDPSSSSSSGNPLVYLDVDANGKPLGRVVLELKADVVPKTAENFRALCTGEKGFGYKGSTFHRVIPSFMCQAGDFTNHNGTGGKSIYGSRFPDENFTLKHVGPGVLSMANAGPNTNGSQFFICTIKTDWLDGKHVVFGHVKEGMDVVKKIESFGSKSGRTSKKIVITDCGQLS
T1 sequence (P62937 whole entry): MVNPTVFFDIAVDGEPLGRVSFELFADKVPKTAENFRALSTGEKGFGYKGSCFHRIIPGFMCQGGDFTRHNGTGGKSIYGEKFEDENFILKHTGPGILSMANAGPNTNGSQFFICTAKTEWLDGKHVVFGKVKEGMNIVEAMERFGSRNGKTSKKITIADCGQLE

CO[C@H](C)[C@H]1NC(=O)[C@@H]([C@H](O)[C@H](C)CCN2CCOCC2)N(C)C(=O)[C@@H](C(C)C)N(C)C(=O)[C@@H](CC(C)C)NC(=O)[C@@H](CC(C)C)N(C)C(=O)[C@H](C(C)C)OC(=O)[C@@H](C)NC(=O)[C@@H](CC(C)C)N(C)C(=O)[C@@H](CC(C)C)NC(=O)[C@H](CC(C)C)N(C)C(=O)CN(C)C1=O (stereo in doubt) [Example 7, cyclo-[(3R,4R,5S)-4-(hydroxy)-3-methyl-5-(methylamino)-1-N-morpholino-hexanoic acid-(O-methyl-Thr)-Sar-MeLeu-Leu-MeLeu-Ala-D-Hiv-MeLeu-Leu-MeVal]]
solubility at 18 h ([1]; pH 7.8): 50 to 75 µM (≈ 66 to 99.1 µg/mL) | Ki [2]: 25 to 100 nM | Ki [3]: 1 to 25 nM

CC(C)C[C@@H]1C(=O)N[C@H](CC(C)C)C(=O)N(C)[C@H](C(C)C)C(=O)N(C)[C@H]([C@H](O)[C@H](C)CCN(C)Cc2ccncc2)C(=O)N[C@H]([C@@H](C)O)C(=O)N(C)CC(=O)N(C)[C@@H](CC(C)C)C(=O)N[C@H](CC(C)C)C(=O)N(C)[C@H](CC(C)C)C(=O)N[C@H](C)C(=O)O[C@@H](C(C)C)C(=O)N1C [Example 3, cyclo-[(3R,4R,5S)-4-(hydroxy)-3-methyl-5-(methylamino)-1-N-(methyl-pyridin-4-ylmethyl-amino)-hexanoic acid-Thr-Sar-MeLeu-Leu-MeLeu-Ala-D-Hiv-MeLeu-Leu-MeVal]] (cyclo([Hiv][dNMeL][dL][dNMeV][X12][d(aThr)][Sar][NMeL][dL][dNMeL][dA]))
solubility at 18 h [1, 4]: 50 to 75 µM (≈ 67.1 to 101 µg/mL) | Ki [2, 5]: 1 to 25 nM | Ki [3, 6]: 1 to 25 nM

CC(C)C[C@@H]1C(=O)N[C@H](CC(C)C)C(=O)N(C)[C@H](C(C)C)C(=O)N(C)[C@H]([C@H](O)[C@H](C)CCN(C)CCc2ccccn2)C(=O)N[C@H]([C@@H](C)O)C(=O)N(C)CC(=O)N(C)[C@@H](CC(C)C)C(=O)N[C@H](CC(C)C)C(=O)N(C)[C@H](CC(C)C)C(=O)N[C@H](C)C(=O)O[C@@H](C(C)C)C(=O)N1C [Example 4, cyclo-{(3R,4R,5S)-4-(hydroxy)-3-methyl-5-(methylamino)-1-N-[methyl-2-(pyridin-2-yl)-ethyl-amino]-hexanoic acid-Thr-Sar-MeLeu-Leu-MeLeu-Ala-D-Hiv-MeLeu-Leu-MeVal}] (cyclo([Hiv][dNMeL][dL][dNMeV][X17][d(aThr)][Sar][NMeL][dL][dNMeL][dA]))
solubility at 18 h [1, 4]: 25 to 50 µM (≈ 33.9 to 67.8 µg/mL) | Ki [2, 5]: 1 to 25 nM | Ki [3, 6]: 1 to 25 nM

CC(C)C[C@@H]1C(=O)N[C@H](CC(C)C)C(=O)N(C)[C@H](C(C)C)C(=O)N(C)[C@H]([C@H](O)[C@H](C)CCN(C)Cc2ccnn2C)C(=O)N[C@H]([C@@H](C)O)C(=O)N(C)CC(=O)N(C)[C@@H](CC(C)C)C(=O)N[C@H](CC(C)C)C(=O)N(C)[C@H](CC(C)C)C(=O)N[C@H](C)C(=O)O[C@@H](C(C)C)C(=O)N1C [Example 5, cyclo-{(3R,4R,5S)-4-(hydroxy)-3-methyl-5-(methylamino)-1-N-[methyl-(2-methyl-2H-pyrazol-3-ylmethyl)-amino]-hexanoic acid-Thr-Sar-MeLeu-Leu-MeLeu-Ala-D-Hiv-MeLeu-Leu-MeVal}] (cyclo([Hiv][dNMeL][dL][dNMeV][X7][d(aThr)][Sar][NMeL][dL][dNMeL][dA]))
solubility at 18 h [1, 4]: 50 to 75 µM (≈ 67.2 to 101 µg/mL) | Ki [2, 5]: 1 to 25 nM | Ki [3, 6]: 1 to 25 nM

CC(C)C[C@@H]1C(=O)N[C@H](CC(C)C)C(=O)N(C)[C@H](C(C)C)C(=O)N(C)[C@H]([C@H](O)[C@H](C)CCN(C)Cc2nnn[nH]2)C(=O)N[C@H]([C@@H](C)O)C(=O)N(C)CC(=O)N(C)[C@@H](CC(C)C)C(=O)N[C@H](CC(C)C)C(=O)N(C)[C@H](CC(C)C)C(=O)N[C@H](C)C(=O)O[C@@H](C(C)C)C(=O)N1C [Example 6, cyclo-{(3R,4R,5S)-4-(hydroxy)-3-methyl-5-(methylamino)-1-N-[methyl-(1H-tetrazol-5-ylmethyl)-amino]-hexanoic acid-Thr-Sar-MeLeu-Leu-MeLeu-Ala-D-Hiv-MeLeu-Leu-MeVal}] (cyclo([Hiv][dNMeL][dL][dNMeV][X30][d(aThr)][Sar][NMeL][dL][dNMeL][dA]))
solubility at 18 h ([1]; pH 7.8): 25 to 50 µM (≈ 33.3 to 66.6 µg/mL) | Ki [2]: 1 to 25 nM | Ki [3]: 1 to 25 nM

CC(C)C[C@@H]1C(=O)N[C@H](CC(C)C)C(=O)N(C)[C@H](C(C)C)C(=O)N(C)[C@H]([C@H](O)[C@H](C)CCN(C)CC2COCCO2)C(=O)N[C@H]([C@@H](C)O)C(=O)N(C)CC(=O)N(C)[C@@H](CC(C)C)C(=O)N[C@H](CC(C)C)C(=O)N(C)[C@H](CC(C)C)C(=O)N[C@H](C)C(=O)O[C@@H](C(C)C)C(=O)N1C (stereo partly drawn) [Example 8, cyclo-{(3R,4R,5S)-4-(hydroxy)-3-methyl-5-(methylamino)-1-N-([1,4]dioxan-2-ylmethyl-methyl-amino)-hexanoic acid-Thr-Sar-MeLeu-Leu-MeLeu-Ala-D-Hiv-MeLeu-Leu-MeVal}] (cyclo([Hiv][dNMeL][dL][dNMeV][X24][d(aThr)][Sar][NMeL][dL][dNMeL][dA]))
solubility at 18 h [1, 4]: > 100 µM | Ki [2, 5]: 25 to 100 nM | Ki [3, 6]: 1 to 25 nM

CC(C)C[C@@H]1C(=O)N[C@H](CC(C)C)C(=O)N(C)[C@H](C(C)C)C(=O)N(C)[C@H]([C@H](O)[C@H](C)CCN2CCCC(C(F)(F)F)C2)C(=O)N[C@H]([C@@H](C)O)C(=O)N(C)CC(=O)N(C)[C@@H](CC(C)C)C(=O)N[C@H](CC(C)C)C(=O)N(C)[C@H](CC(C)C)C(=O)N[C@H](C)C(=O)O[C@@H](C(C)C)C(=O)N1C (stereo partly drawn) [Example 9, cyclo-{(3R,4R,5S)-4-(hydroxy)-3-methyl-5-(methylamino)-1-N-[3-trifluoromethyl-piperidinyl]-hexanoic acid-Thr-Sar-MeLeu-Leu-MeLeu-Ala-D-Hiv-MeLeu-Leu-MeVal}] (cyclo([Hiv][dNMeL][dL][dNMeV][X19][d(aThr)][Sar][NMeL][dL][dNMeL][dA]))
solubility at 18 h [1, 4]: 10 to 25 µM (≈ 13.7 to 34.3 µg/mL) | Ki [2, 5]: 1 to 25 nM | Ki [3, 6]: 1 to 25 nM

CC(C)C[C@@H]1C(=O)N[C@H](CC(C)C)C(=O)N(C)[C@H](C(C)C)C(=O)N(C)[C@H]([C@H](O)[C@H](C)CCN2CCN(C)CC2)C(=O)N[C@H]([C@@H](C)O)C(=O)N(C)CC(=O)N(C)[C@@H](CC(C)C)C(=O)N[C@H](CC(C)C)C(=O)N(C)[C@H](CC(C)C)C(=O)N[C@H](C)C(=O)O[C@@H](C(C)C)C(=O)N1C [Example 32, cyclo-[(3R,4R,5S)-4-(hydroxy)-3-methyl-5-(methylamino)-1-N—(N′-methylpiperazine)-hexanoic acid-Thr-Sar-MeLeu-Leu-MeLeu-Ala-D-Hiv-MeLeu-Leu-MeVal]] (cyclo([Hiv][dNMeL][dL][dNMeV][X34][d(aThr)][Sar][NMeL][dL][dNMeL][dA]))
Ki [2]: 100 to 300 nM | Ki [3]: 25 to 100 nM
